Source: the NIST ThermoML archive (doi:10.1016/j.jct.2015.07.025)
Where “and” joins values, the source holds several entries; their conditions need not be identical. Identical values can stand only once.

Tests used:
[1] = for Normal melting temperature: Crystal, DTA; for vapor or sublimation pressure: Liquid, Transpiration method
[2] = Molar enthalpy of transition or fusion; conditions: Crystal; DSC

Cc1cc(C)c(C#N)c(C)c1 [2,4,6-trimethylbenzonitrile]
Conditions	Molar enthalpy of transition or fusion [kJ/mol]	Normal melting temperature [°C]
[1]	–	52.4
[2]	15.5	–

Cc1ccccc1C#N [2-methylbenzonitrile]
[1]
Conditions	vapor or sublimation pressure
287.4 K	0.02064 kPa
289.2 K	0.02389 kPa
290.3 K	0.02582 kPa
292.4 K	0.03043 kPa
296.3 K	0.04075 kPa
298.1 K	0.0467 kPa
300.7 K	0.05531 kPa
305.1 K	0.07684 kPa
308.2 K	0.0961 kPa
311 K	0.1162 kPa
312 K	0.1257 kPa and 0.1248 kPa
314.9 K	0.1494 kPa
316.1 K	0.1625 kPa
318.1 K	0.1865 kPa
321.1 K	0.2216 kPa
322.2 K	0.2425 kPa
324.2 K	0.2729 kPa

Cc1cccc(C#N)c1 [3-cyanotoluene]
[1]
Conditions	vapor or sublimation pressure [kPa]
279.8 K	0.0072
281.3 K	0.00829
283.7 K	0.01033
285.7 K	0.01206
288.3 K	0.01513
290.3 K	0.01801
292.4 K	0.02154
294.3 K	0.02516
297.2 K	0.03103
300 K	0.03937
302.1 K	0.04606
304.1 K	0.05317
307.7 K	0.06905
309.2 K	0.0755
310.1 K	0.08291
312 K	0.09159
313.7 K	0.1049

Cc1ccc(C#N)cc1 [4-cyanotoluene]
[1]
Conditions	vapor or sublimation pressure
302.1 K	0.03154 kPa
303.2 K	0.03377 kPa
305.3 K	0.04002 kPa
309.1 K	0.05079 kPa
311 K	0.06008 kPa
313.1 K	0.06747 kPa
315 K	0.07922 kPa
319.1 K	0.09993 kPa
320.9 K	0.1159 kPa
322.9 K	0.1303 kPa
325 K	0.1463 kPa and 0.1458 kPa
329 K	0.1856 kPa
331 K	0.2118 kPa
332.8 K	0.2374 kPa
334.9 K	0.2629 kPa

Conditions	Molar enthalpy of transition or fusion [kJ/mol]	Normal melting temperature [°C]
[1]	–	26.2
[2]	16.1	–
